The values below come from patent publication US9220703B2, “Composition and method for the protection of articular cartilage” (priority 2014, dated 2015).

For the experiment, the system named is Mycobacterium tuberculosis (adjuvant) induced arthritis. Put plainly: Adjuvant induced arthritis in rats, histopathology of paw/ankle joint tissue. It is filed as in vivo, Albino Wistar rats. To be noted: for Histopathology of rat paw tissue: articular cartilage / Histopathology of rat paw tissue: granulomas / Histopathology of rat paw tissue: synovial tissue: adjuvant arthritic rats, H&E stain. As to the method:
Pathological damage: Adjuvant induced arthritis in animal models
Animals used: Albino Wistar rats of either sex
Weight of the animals: 140-180 grams
Number of animals/group: 5
Methodology: Chronic arthritis was induced in rats by the injection of 0.05 mL of (0.5% w/v) suspension of killed Mycobacterium tuberculosis, homogenized in liquid paraffin in the left hind foot.
Right ankle joints of the animals in the control and treated groups were separated from the hind paw, weighed and immersed in 10% buffered formalin for 24 hours, followed by decalcification in 10% EDTA. The joints were then dehydrated, processed and paraffin (56 C-58 C) blocks were prepared, stained (hematoxylin and eosin) and examined under the compound microscope (Patel P, Patel D, Patel N. Experimental investigation of anti-rheumatoid activity of Pleurotus sajorcaju in adjuvant-induced arthritic rats. Chinese Journal of Natural Medicines, 2012; 10 (4): 0269-0274.

As to `COc1cc(/C=C/C(=O)COC(=O)/C=C/c2ccc(O)c(OC)c2)ccc1O` [Calebin A], for the setting “Calebin A 10 mg/kg per oral”, the “Histopathology of rat paw tissue: articular cartilage” value is reported as “intact articular cartilage with synovial tissue in the joint”; the “Histopathology of rat paw tissue: granulomas” value is “No granulomas were seen”; the “Histopathology of rat paw tissue: synovial tissue” value was “congested vascular spaces (Long-Arrows), scattered lymphocytes (Short-Arrow) and intact synovial lining”. For the same compound, under “Calebin A 20 mg/kg per oral”, the “Histopathology of rat paw tissue: articular cartilage” value is given as “intact articular cartilage with synovial tissue in the joint”; the “Histopathology of rat paw tissue: granulomas” value was “No granulomas were seen”; the “Histopathology of rat paw tissue: synovial tissue” value was “mild synovial epithelial hyperplasia (Short-Arrow), scattered lymphocytes (Long-Arrow) and intact vascular spaces”. In addition, where the note is “arthritic rats, across doses”, the “Protection of articular cartilage (histopathological studies, overall)” value was “dose dependant protection of articular cartilage”.
